Measurements: patent US6706267B1, “Glucosamine and egg for reducing inflammation” (Arkion Life Sciences LLC, priority 1999, dated 2004)
Marks after values point to notes of the source that are not given here.

How the values were obtained:
Assay type in all cases: in vivo
plasma fibrinogen = experiment: Rat established adjuvant arthritis model: plasma fibrinogen levels
Source text: (§1) To assess the synergistic antiarthritic effect of Glucosamine hydrochloride and the DCV hyperimmune egg in the established rat adjuvant arthritis, a chronic animal model of inflammation.

[1] = system: established rat adjuvant arthritis; experiment: Rat adjuvant arthritis model: histomorphologic observations, tibiotarsal joint; parameters: scale not given here; conditions: for Ankylosis (score) / Erosion, Cartliage (score) / Hyperostosis (score) / Inflammation, periarticular (score) / Osteolysis (score) / Pannus, Cartliage (score): Tibiotarsal Joint (H&E); for Erosion, Cartilage (score): Tibiotarsal Joint (PAS)
Source text: as §1

[2] = system: established rat adjuvant arthritis; experiment: Rat established adjuvant arthritis model: paw edema; conditions: for % Chg (paw edema vs Control Adjuvant) / Day 14-Mean Paw Edema (ml ± SE) / Day 22-Mean Paw Edema (ml ± SE) / Day 30-Mean Paw Edema (ml ± SE): oral, rat
Source text: as §1

Compound | % Δ from ctrl (plasma fibrinogen) (plasma fibrinogen; Day 23, oral) [%] | Mean Plasma Fibrinogen Levels (mg/dl ± SE) (plasma fibrinogen; Day 23, oral) [mg/dL] | % Δ from ctrl (plasma fibrinogen) (plasma fibrinogen; Day 30, oral) | Mean Plasma Fibrinogen Levels (mg/dl ± SE) (plasma fibrinogen; Day 30, oral) [mg/dL] | Ankylosis (score) ([1]; Day 22) | Erosion, Cartliage (score) ([1]; Day 22) | Hyperostosis (score) ([1]; Day 22) | Inflammation, periarticular (score) ([1]; Day 22) | Osteolysis (score) ([1]; Day 22) | Pannus, Cartliage (score) ([1]; Day 22) | Ankylosis (score) ([1]; Day 30) | Erosion, Cartliage (score) ([1]; Day 30) | Hyperostosis (score) ([1]; Day 30) | Inflammation, periarticular (score) ([1]; Day 30) | Osteolysis (score) ([1]; Day 30) | Pannus, Cartliage (score) ([1]; Day 30) | Erosion, Cartilage (score) ([1]; Day 22) | Erosion, Cartilage (score) ([1]; Day 30) | % Chg (paw edema vs Control Adjuvant) ([2]; Day 14) [%] | Day 14-Mean Paw Edema (ml ± SE) ([2]; Day 14) | other results
Cl.N[C@H]1C(O)O[C@H](CO)[C@@H](O)[C@@H]1O (some centres unmarked) [GLU-250, Glucosamine hydrochloride] | −2 | 803 ± 39 | −28% | 487 ± 112 | 3.5 | 2.0 | 3.0 | 3.5 | 1.5 | 2.0 | 4.0 | 4.0 | 3.5 | 4.0 | 3.5 | 4.0 | 2.0 | 4.0 | −15 | 1.1 ± 0.3, n = 7 ml | % Δ from ctrl (plasma fibrinogen) (plasma fibrinogen; Day 16, oral): +18%; Mean Plasma Fibrinogen Levels (mg/dl ± SE) (plasma fibrinogen; Day 16, oral): 735 ± 44 mg/dL; % Chg (paw edema vs Control Adjuvant) ([2]; Day 22): −16%; Day 22-Mean Paw Edema (ml ± SE) ([2]; Day 22): 1.6 ± 0.3, n = 7 ml; % Chg (paw edema vs Control Adjuvant) ([2]; Day 30): +48* %; Day 30-Mean Paw Edema (ml ± SE) ([2]; Day 30): 3.1 ± 0.2, n = 5 ml; effect on paw edema, in words ([2]; day 30, severe polyarthritis): ineffectiveness; effect on paw edema, in words ([2]; days 14 and 22): inhibitory effect
COc1ccc2c(c1)c(CC(=O)O)c(C)n2C(=O)c1ccc(Cl)cc1 [Indo, Indomethacin] | −28 | 617 ± 72 | −46* % | 366 ± 48 | 1.5/1.5 | 1.5 | 3.0 | 3.5/3.5 | 2.5 | 1.5 | 1.5/1.5 | 2.5 | 2.0 | 3.5/3.5 | 1.0 | 2.5 | 1.5 | 2.5 | −8 | 1.2 ± 0.4, n = 6 ml | percent inhibition of fibrinogen levels (plasma fibrinogen; day 30): 46%; % Chg (paw edema vs Control Adjuvant) ([2]; Day 22): −37%; Day 22-Mean Paw Edema (ml ± SE) ([2]; Day 22): 1.2 ± 0.1, n = 6 ml; % Chg (paw edema vs Control Adjuvant) ([2]; Day 30): −86* %; Day 30-Mean Paw Edema (ml ± SE) ([2]; Day 30): 0.3 ± 0.1, n = 5 ml
